Results from patent publication US8466172B2, “Stabilization of hypoxia inducible factor (HIF) alpha” (FibroGen, Inc., priority 2001, dated 2013).
“And” between values parts separate entries of the source, which are not always exact repeats. Identical values can stand only once.

System: Wistar rats, acute myocardial infarction (AMI)
Experiment: Cardiac ischemia Experiment I, 4-week study after acute myocardial infarction
Format: in vivo, rat
Settings: for fractional shortening: Treated-MI
Text: Seventy adult male Wistar rats (200-250 g) were anaesthetized and subjected to left coronary artery occlusion to produce acute myocardial infarction (AMI). Nine animals were subjected to identical surgery without coronary artery ligation. Twenty-four to forty-eight hours after surgery, electrocardiogram (ECG) electrodes were applied to the paws and a 15 MHz linear probe (Acuson Corp., Mountain View Calif.) was applied to the chest to obtain short axis transthoracic echocardiography (2DE) images at the mid-papillary muscle level. The probe was moved cephalad or caudad and angulated until clear endocardial visualization of the left ventricular cavity was detected. Images were obtained using the Sequoia ultrasound system (Acuson). Animals with less than 20% fractional shortening and regional wall motion abnormality on the 2DE were randomized to treatment with compound A (n=14) or vehicle (n=12). The sham controls were also randomized to treatment with compound A (n=4) or vehicle (n=5).
Animals were treated by gavage 2 times per day for the duration of the experiment with compound A at 50 mg/kg or with vehicle alone. Serum level of drug was determined periodically to establish that treated animals received sufficient and consistent amount of drug and that the measured levels were sufficient to inhibit prolyl 4-hydroxylase, a representative 2-oxoglutarate dioxygenase.
Serial 2DE images were obtained weekly. Three short axis 2DE digital clips containing 5 or more systolic and diastolic frames were captured and stored. Two observers blinded to treatment did measurements off-line. For the measurements, the digital images were slowed and frozen at end systole and end diastole. Two systolic and two diastolic frames from each of the three digital clips were measured by consensus and averaged. The anterior wall in systole (AWS) and diastole (AWD), posterior wall in systole (PWS) and diastole (PWD), and left ventricular end systolic (LVESD) and end diastolic (LVEDD) were measured according to the American Society for Echocardiology (ASE) leading-edge method. For consistency, measurements were done from the anterior to the posterior mid points of the left ventricular cavity and were randomly repeated to ensure reproducibility (reproducibility was approximately 96%).
At four weeks of treatment, in vivo hemodynamic measurements were determined, as described below, both before and after infusion (0.2 ml over 1 minute) of […] isoproterenol via the femoral vein. Hearts were then excised and weighed as described below.
To collect in vivo hemodynamic measurements, animals were anaesthetized and the right carotid artery was dissected free from surrounding tissues and canulated with an SPR-671 ultra-miniature pressure transducer (Millar Instruments, Inc., Houston Tex.). The catheter was then advanced into the left ventricle. After steady state was established, baseline heart rate (HR), developed pressure (DP), contractile index (CI), left ventricle systolic pressure (SBP) and end diastolic pressure (LVEDP), and maximal rate of pressure rise and fall (+dP/dt and −dP/dt, respectively) were recorded.
Following hemodynamic measurement, hearts were excised and weighed. Pieces of scarred myocardium, and right ventricle and left ventricle myocardium distant from the site of infarct were dissected out and weighed. Hydroxyproline and proline were determined by the method of Palmerini et al. (1985, J Chromatogr 339:285-92) except that L-azetidine-2-carboxylic acid (Sigma-Aldrich) was substituted for 3,4-dehydroproline as the internal standard.

O=C(O)c1c[nH]c2c(ccc3cccnc32)c1=O [Compound A, 4-oxo-1,4-dihydro-[1,10]phenanthroline-3-carboxylic acid]
Hydroxyproline/proline in infarct scar (4 weeks post-MI): 0.34 ± 0.08
Hydroxyproline/proline in non-infarct left ventricular myocardium (4 weeks post-MI): 0.12 ± 0.06
Hydroxyproline/proline in non-infarct right ventricular myocardium (4 weeks post-MI): 0.13 ± 0.02
+dP/dt (4 weeks post-MI, baseline): 9477 ± 581 mm Hg/sec
Developed pressure (4 weeks post-MI, baseline): 133 ± 6 mm Hg
Systolic BP (4 weeks post-MI, baseline): 143 ± 7 mm Hg
−dP/dt (4 weeks post-MI, baseline): 9978 ± 827 mm Hg/sec
+dP/dt (4 weeks post-MI, isoproterenol): 16830 ± 1195 mm Hg/sec
Developed pressure (4 weeks post-MI, isoproterenol): 121 ± 9 mm Hg
Systolic BP (4 weeks post-MI, isoproterenol): 130 ± 9 mm Hg
−dP/dt (4 weeks post-MI, isoproterenol): 9234 ± 703 mm Hg/sec
fractional shortening (week 0 (baseline)): 10% and 10 ± 0.8%
fractional shortening (week 1): 17 ± 1%
fractional shortening (week 2): 20% and 20 ± 2%
fractional shortening (week 3): 21 ± 2%
fractional shortening (week 4): 21 ± 3%
increase in fractional shortening relative to baseline (week 2): 79%
